Bridge positions count the residues as written; N and C are the ends. Square brackets hold non-standard residues; d marks the D form. Peptide text beside a SMILES is read from it. Hyp = O=C(O)[C@@H]1C[C@@H](O)CN1; Cit = NC(=O)NCCC[C@H](N)C(=O)O
Tests used:
[1] = Physical stability of peptide analogues (Thioflavin T fibrillation); format: physicochemical; settings: maximum ThT signal normalized between hAMY maximum and buffer background; 40° C., shaking, four days; pH 7 per table title
How it was run: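 Peptides in 50 mM sodium acetate pH 4 or 50 mM sodium phosphate pH 7 were preincubated 1 h, mixed with 4 μM ThT, held at 40° C with 700 rpm shaking before each read. Fluorescence (ex 450/em 480 nm) every 10 min for four days; LOESS-smoothed maximum signal normalized in percent between hAMY and buffer.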

[2] = target: T1, hAMY3 receptor (Homo sapiens, UniProt O60896+P30988); test: cAMP assay for in vitro receptor activation, hAMY3-R; format: cell-based; settings: cAMP assay, hAMY3 receptor; read-out: hAMY3R EC50
T1 sequence (P30988 25-474): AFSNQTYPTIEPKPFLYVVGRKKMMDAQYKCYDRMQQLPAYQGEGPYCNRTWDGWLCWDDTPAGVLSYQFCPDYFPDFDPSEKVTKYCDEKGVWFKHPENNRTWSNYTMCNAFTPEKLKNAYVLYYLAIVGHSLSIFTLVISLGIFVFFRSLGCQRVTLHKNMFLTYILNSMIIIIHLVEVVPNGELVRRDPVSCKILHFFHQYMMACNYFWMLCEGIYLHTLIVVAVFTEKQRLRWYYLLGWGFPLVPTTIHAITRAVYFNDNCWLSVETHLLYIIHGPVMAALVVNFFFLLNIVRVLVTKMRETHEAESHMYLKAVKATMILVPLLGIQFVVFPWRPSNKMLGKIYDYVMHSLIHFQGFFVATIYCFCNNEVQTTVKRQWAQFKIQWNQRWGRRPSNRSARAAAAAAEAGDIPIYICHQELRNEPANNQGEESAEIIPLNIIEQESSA
T1 sequence (O60896 24-148 partner): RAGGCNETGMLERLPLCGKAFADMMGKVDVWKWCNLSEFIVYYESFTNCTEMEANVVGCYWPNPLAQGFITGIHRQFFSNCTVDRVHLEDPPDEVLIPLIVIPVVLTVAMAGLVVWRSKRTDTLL
How it was run: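 Monoclonal cell line stably overexpressing hAMY3 receptor, plated in DPBS with 0.05% casein and 0.5 mM IBMX, was stimulated with graded compound doses for 30 min at room temperature. cAMP accumulation was read by time-resolved FRET one hour after adding detection reagents.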

[3] = target: hAM1 receptor (Homo sapiens, UniProt O60895+Q16602); test: cAMP assay for in vitro receptor activation, hAM1-R; format: cell-based; settings: cAMP assay, hAM1 receptor; read-out: hAM1R EC50
Chain of hAM1 receptor (Q16602 23-461): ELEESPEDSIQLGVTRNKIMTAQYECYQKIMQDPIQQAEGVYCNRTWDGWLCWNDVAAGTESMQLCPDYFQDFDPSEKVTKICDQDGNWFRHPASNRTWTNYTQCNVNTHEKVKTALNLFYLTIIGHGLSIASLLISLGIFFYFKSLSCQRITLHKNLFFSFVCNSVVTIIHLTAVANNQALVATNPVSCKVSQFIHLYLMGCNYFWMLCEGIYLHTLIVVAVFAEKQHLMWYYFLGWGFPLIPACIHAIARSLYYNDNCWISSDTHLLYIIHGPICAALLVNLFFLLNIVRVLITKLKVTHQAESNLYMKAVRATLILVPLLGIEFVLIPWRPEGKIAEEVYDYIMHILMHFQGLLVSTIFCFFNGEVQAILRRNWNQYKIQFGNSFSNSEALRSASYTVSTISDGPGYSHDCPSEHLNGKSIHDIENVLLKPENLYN
Chain of hAM1 receptor (O60895 43-175 partner): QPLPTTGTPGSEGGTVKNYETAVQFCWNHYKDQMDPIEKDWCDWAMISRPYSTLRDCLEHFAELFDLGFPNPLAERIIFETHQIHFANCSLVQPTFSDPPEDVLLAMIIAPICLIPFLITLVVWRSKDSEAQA
How it was run: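 cAMP accumulation was measured in a monoclonal cell line stably overexpressing the hAM1 receptor. Frozen aliquots were thawed and plated at 8000 cells/well in DPBS containing 0.05% casein and 0.5 mM IBMX.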

SMILES | Max ThT signal (%) [1] [%] | EC50 [2] [nM] | EC50 [3] [nM]
CC[C@H](C)[C@H](NC(=O)[C@H](CCC(N)=O)NC(=O)[C@H](Cc1c[nH]cn1)NC(=O)[C@H](C)NC(=O)[C@H](CC(C)C)NC(=O)[C@H](CCCNC(N)=O)NC(=O)[C@H](CCC(N)=O)NC(=O)[C@@H](NC(=O)[C@@H](NC(=O)[C@@H]1CSSC[C@H](NC(=O)CN)C(=O)N[C@@H](CCCNC(=N)N)C(=O)N[C@@H](Cc2ccccc2)C(=O)NCC(=O)N[C@@H]([C@@H](C)O)C(=O)N1)[C@@H](C)O)C(C)C)C(=O)N[C@@H](Cc1ccc(O)cc1)C(=O)N[C@@H](CCC(N)=O)C(=O)N[C@@H](Cc1ccccc1)C(=O)N[C@H](C(=O)N[C@@H](CC(=O)O)C(=O)N[C@@H](CCCCN)C(=O)N[C@@H](CC(=O)O)C(=O)N[C@@H](CCCCN)C(=O)N[C@@H](CC(=O)O)C(=O)N[C@@H](CC(N)=O)C(=O)N[C@H](C(=O)N[C@@H](C)C(=O)N1CCC[C@H]1C(=O)N[C@@H](CCCNC(=N)N)C(=O)N[C@H](C(=O)N[C@@H](CC(N)=O)C(=O)N[C@H](C(=O)N[C@@H](CO)C(=O)N1CCC[C@H]1C(=O)N[C@@H](CCC(N)=O)C(=O)NCC(=O)N1C[C@H](O)C[C@H]1C(N)=O)C(C)C)[C@@H](C)O)C(C)C)[C@@H](C)O [compound 283] (H-GCRFGTCTVQ[Cit]LAHQIYQFTDKDKDNVAPRTNVSPQG[Hyp]-NH2; disulfide 2-7; N-terminus assumed) | 17.100 | 0.035 | > 5000
CC[C@H](C)[C@H](NC(=O)[C@H](CCC(N)=O)NC(=O)[C@H](Cc1c[nH]cn1)NC(=O)[C@H](C)NC(=O)[C@H](CC(C)C)NC(=O)[C@H](CCCNC(=N)N)NC(=O)[C@H](CCC(N)=O)NC(=O)[C@@H](NC(=O)[C@@H](NC(=O)[C@@H]1CSSC[C@H](NC(=O)CN)C(=O)N[C@@H](CCCNC(=N)N)C(=O)N[C@@H]([C@@H](C)O)C(=O)NCC(=O)N[C@@H]([C@@H](C)O)C(=O)N1)[C@@H](C)O)C(C)C)C(=O)N[C@@H](Cc1ccc(O)cc1)C(=O)N[C@@H](CCC(N)=O)C(=O)N[C@@H](Cc1ccccc1)C(=O)N[C@H](C(=O)N[C@@H](CC(=O)O)C(=O)N[C@@H](CCCCN)C(=O)N[C@@H](Cc1ccccc1)C(=O)N[C@@H](CCCCN)C(=O)N[C@@H](CC(=O)O)C(=O)N[C@@H](CC(N)=O)C(=O)N[C@H](C(=O)N[C@@H](C)C(=O)N1CCC[C@H]1C(=O)N[C@@H](CCCNC(=N)N)C(=O)N[C@@H](CO)C(=O)N[C@@H](CCCCN)C(=O)N[C@H](C(=O)N[C@@H](CO)C(=O)N1CCC[C@H]1C(=O)N[C@@H](CCC(N)=O)C(=O)N[C@@H](CCCCN)C(=O)N1C[C@H](O)C[C@H]1C(N)=O)[C@@H](C)CC)C(C)C)[C@@H](C)O [compound 206] (H-GCRTGTCTVQRLAHQIYQFTDKFKDNVAPRSKISPQK[Hyp]-NH2; disulfide 2-7; N-terminus assumed) | 1.500 | 0.13 | > 5000

Results, then the compound that gave them:

Max ThT signal (%) [1] [%] | EC50 [2] [nM] | EC50 [3] [nM] | SMILES
3.900 | 0.018 | > 5000 | CC[C@H](C)[C@H](NC(=O)[C@H](CCC(N)=O)NC(=O)[C@H](Cc1c[nH]cn1)NC(=O)[C@H](C)NC(=O)[C@H](CC(C)C)NC(=O)[C@H](Cc1c[nH]c2ccccc12)NC(=O)[C@H](CCC(N)=O)NC(=O)[C@@H](NC(=O)[C@@H](NC(=O)[C@@H]1CSSC[C@H](NC(=O)[C@@H](N)CCCCN)C(=O)N[C@@H](CC(N)=O)C(=O)N[C@@H]([C@@H](C)O)C(=O)N[C@@H](C)C(=O)N[C@@H]([C@@H](C)O)C(=O)N1)[C@@H](C)O)C(C)C)C(=O)N[C@@H](Cc1ccc(O)cc1)C(=O)N[C@@H](CCC(N)=O)C(=O)N[C@@H](Cc1ccccc1)C(=O)N[C@H](C(=O)N[C@@H](CC(=O)O)C(=O)N[C@@H](CCCCN)C(=O)N[C@@H](CC(=O)O)C(=O)N[C@@H](CCCCN)C(=O)N[C@@H](CC(=O)O)C(=O)N[C@@H](CC(N)=O)C(=O)N[C@H](C(=O)N[C@@H](C)C(=O)N1CCC[C@H]1C(=O)N[C@H](C(=O)N[C@@H](CC(N)=O)C(=O)N[C@H](C(=O)NCC(=O)N[C@@H](CO)C(=O)N[C@@H](CC(N)=O)C(=O)NCC(=O)N1C[C@H](O)C[C@H]1C(N)=O)C(C)C)[C@@H](C)O)C(C)C)[C@@H](C)O [compound 319] (H-KCNTATCTVQWLAHQIYQFTDKDKDNVAPTNVGSNG[Hyp]-NH2; disulfide 2-7; N-terminus assumed)
14.900 | 0.009 | > 5000 | CC[C@H](C)[C@H](NC(=O)[C@H](CCC(N)=O)NC(=O)[C@H](Cc1c[nH]cn1)NC(=O)[C@H](C)NC(=O)[C@H](CC(C)C)NC(=O)[C@H](Cc1c[nH]c2ccccc12)NC(=O)[C@H](CCC(N)=O)NC(=O)[C@@H](NC(=O)[C@@H](NC(=O)[C@@H]1CSSC[C@H](NC(=O)[C@@H](N)CCCCN)C(=O)N[C@@H](CC(N)=O)C(=O)N[C@@H]([C@@H](C)O)C(=O)N[C@@H](C)C(=O)N[C@@H]([C@@H](C)O)C(=O)N1)[C@@H](C)O)C(C)C)C(=O)N[C@@H](Cc1ccc(O)cc1)C(=O)N[C@@H](CCC(N)=O)C(=O)N[C@@H](Cc1ccccc1)C(=O)N[C@H](C(=O)N[C@@H](CC(=O)O)C(=O)N[C@@H](CCCCN)C(=O)N[C@@H](CC(=O)O)C(=O)N[C@@H](CCCCN)C(=O)N[C@@H](CC(=O)O)C(=O)N[C@@H](CC(N)=O)C(=O)N[C@H](C(=O)N1CCC[C@H]1C(=O)N1CCC[C@H]1C(=O)N[C@H](C(=O)N[C@@H](CC(N)=O)C(=O)N[C@H](C(=O)NCC(=O)N[C@@H](CO)C(=O)N[C@@H](CC(N)=O)C(=O)NCC(=O)N1C[C@H](O)C[C@H]1C(N)=O)C(C)C)[C@@H](C)O)C(C)C)[C@@H](C)O [compound 318] (H-KCNTATCTVQWLAHQIYQFTDKDKDNVPPTNVGSNG[Hyp]-NH2; disulfide 2-7; N-terminus assumed)
1.600 | 0.015 | > 5000 | CC[C@H](C)[C@H](NC(=O)[C@H](CCC(N)=O)NC(=O)[C@H](Cc1c[nH]cn1)NC(=O)[C@H](C)NC(=O)[C@H](CC(C)C)NC(=O)[C@H](Cc1c[nH]c2ccccc12)NC(=O)[C@H](CCC(N)=O)NC(=O)[C@@H](NC(=O)[C@@H](NC(=O)[C@@H]1CSSC[C@H](NC(=O)CN)C(=O)N[C@@H](CCCNC(=N)N)C(=O)N[C@@H]([C@@H](C)O)C(=O)NCC(=O)N[C@@H]([C@@H](C)O)C(=O)N1)[C@@H](C)O)C(C)C)C(=O)N[C@@H](Cc1ccc(O)cc1)C(=O)N[C@@H](CCC(N)=O)C(=O)N[C@@H](Cc1ccccc1)C(=O)N[C@H](C(=O)N[C@@H](CC(=O)O)C(=O)N[C@@H](CCCCN)C(=O)N[C@@H](CC(=O)O)C(=O)N[C@@H](CCCCN)C(=O)N[C@@H](CC(=O)O)C(=O)N[C@@H](CC(N)=O)C(=O)N[C@H](C(=O)N[C@@H](C)C(=O)N1CCC[C@H]1C(=O)N[C@@H](CCCNC(=N)N)C(=O)N[C@H](C(=O)N[C@@H](CC(N)=O)C(=O)N[C@H](C(=O)NCC(=O)N1CCC[C@H]1C(=O)N[C@@H](CCC(N)=O)C(=O)NCC(=O)N[C@@H](Cc1ccc(O)cc1)C(N)=O)C(C)C)[C@@H](C)O)C(C)C)[C@@H](C)O [compound 335] (H-GCRTGTCTVQWLAHQIYQFTDKDKDNVAPRTNVGPQGY-NH2; disulfide 2-7; N-terminus assumed)
10.100 | 0.025 | > 5000 | CC[C@H](C)[C@H](NC(=O)[C@H](CCC(N)=O)NC(=O)[C@H](Cc1c[nH]cn1)NC(=O)[C@H](C)NC(=O)[C@H](CC(C)C)NC(=O)[C@H](Cc1c[nH]c2ccccc12)NC(=O)[C@H](CCC(N)=O)NC(=O)[C@@H](NC(=O)[C@@H](NC(=O)[C@@H]1CSSC[C@H](NC(=O)[C@@H](N)CCCCN)C(=O)N[C@@H](CC(N)=O)C(=O)N[C@@H]([C@@H](C)O)C(=O)N[C@@H](C)C(=O)N[C@@H]([C@@H](C)O)C(=O)N1)[C@@H](C)O)C(C)C)C(=O)N[C@@H](Cc1ccc(O)cc1)C(=O)N[C@@H](CCC(N)=O)C(=O)N[C@@H](Cc1ccccc1)C(=O)N[C@H](C(=O)N[C@@H](CC(=O)O)C(=O)N[C@@H](CCCCN)C(=O)N[C@@H](CC(=O)O)C(=O)N[C@@H](CCCCN)C(=O)N[C@@H](CC(=O)O)C(=O)N[C@@H](CC(N)=O)C(=O)N[C@H](C(=O)N[C@@H](C)C(=O)N[C@@H](C)C(=O)N1CCC[C@H]1C(=O)N[C@H](C(=O)N[C@@H](CC(N)=O)C(=O)N[C@H](C(=O)NCC(=O)N[C@@H](CO)C(=O)N[C@@H](CC(N)=O)C(=O)NCC(=O)N1C[C@H](O)C[C@H]1C(N)=O)C(C)C)[C@@H](C)O)C(C)C)[C@@H](C)O [compound 325] (H-KCNTATCTVQWLAHQIYQFTDKDKDNVAAPTNVGSNG[Hyp]-NH2; disulfide 2-7; N-terminus assumed)
